Experimental data from patent publication US8153797B2, “Chromen-2-one derivatives and their use as monoamine neurotransmitter re-uptake inhibitors” (Neurosearch A/S, priority 2006, dated 2012).
Structures can show the parent of a compound that is named as a salt. Where two headings read alike, the source gives them in different places.

Columns and labels:
[1] = target: T1, reuptake of dopamine (DA) in synaptosomes (Rattus norvegicus, UniProt P23977); assay: Inhibition of dopamine reuptake in synaptosomes; format: biochemical
T1 construct: in synaptosomes as described in WO 97/16451; from tissue; method in WO 97/16451
T1 sequence (P23977 whole entry): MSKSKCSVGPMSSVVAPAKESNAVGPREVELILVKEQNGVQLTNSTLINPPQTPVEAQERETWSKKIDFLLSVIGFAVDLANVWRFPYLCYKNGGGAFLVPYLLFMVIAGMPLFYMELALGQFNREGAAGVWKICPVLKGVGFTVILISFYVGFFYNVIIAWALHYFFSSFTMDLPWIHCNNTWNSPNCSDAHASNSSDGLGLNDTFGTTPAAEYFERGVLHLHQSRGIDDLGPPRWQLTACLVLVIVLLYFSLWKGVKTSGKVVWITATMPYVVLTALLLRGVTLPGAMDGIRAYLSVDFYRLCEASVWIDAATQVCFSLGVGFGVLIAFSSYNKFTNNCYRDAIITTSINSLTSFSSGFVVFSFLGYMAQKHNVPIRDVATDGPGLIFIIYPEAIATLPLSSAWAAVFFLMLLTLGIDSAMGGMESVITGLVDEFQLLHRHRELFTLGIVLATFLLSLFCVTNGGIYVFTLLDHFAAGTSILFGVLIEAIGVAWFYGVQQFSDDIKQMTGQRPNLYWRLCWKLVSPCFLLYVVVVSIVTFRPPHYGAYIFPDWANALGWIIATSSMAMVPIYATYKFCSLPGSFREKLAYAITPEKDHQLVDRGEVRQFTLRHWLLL

[2] = target: T2, reuptake of noradrenaline (NA) in synaptosomes (Rattus norvegicus, UniProt Q63380); assay: Inhibition of noradrenaline reuptake in synaptosomes; format: biochemical
T2 construct: in synaptosomes as described in WO 97/16451; from tissue; method in WO 97/16451
T2 sequence (Q63380 1-617): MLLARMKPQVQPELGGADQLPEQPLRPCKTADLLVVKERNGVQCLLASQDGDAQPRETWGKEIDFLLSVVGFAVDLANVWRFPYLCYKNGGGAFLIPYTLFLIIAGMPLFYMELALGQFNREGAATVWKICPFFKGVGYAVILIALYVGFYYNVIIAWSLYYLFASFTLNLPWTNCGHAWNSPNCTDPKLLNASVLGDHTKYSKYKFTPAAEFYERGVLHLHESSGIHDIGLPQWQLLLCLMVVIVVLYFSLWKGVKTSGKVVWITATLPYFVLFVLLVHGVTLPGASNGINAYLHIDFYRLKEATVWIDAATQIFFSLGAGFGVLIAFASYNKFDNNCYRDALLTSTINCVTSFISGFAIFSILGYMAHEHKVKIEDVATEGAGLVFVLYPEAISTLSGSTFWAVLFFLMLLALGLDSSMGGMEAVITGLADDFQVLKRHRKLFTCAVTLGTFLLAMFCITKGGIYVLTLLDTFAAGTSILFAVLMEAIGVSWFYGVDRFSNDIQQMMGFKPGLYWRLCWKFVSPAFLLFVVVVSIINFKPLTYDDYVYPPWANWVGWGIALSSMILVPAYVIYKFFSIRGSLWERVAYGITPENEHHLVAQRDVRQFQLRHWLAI

[3] = target: T3, reuptake of serotonine (5-HT) in synaptosomes (Rattus norvegicus, UniProt P31652); assay: Inhibition of serotonin reuptake in synaptosomes; format: biochemical
T3 construct: in synaptosomes as described in WO 97/16451; from tissue; method in WO 97/16451
T3 sequence (P31652 whole entry): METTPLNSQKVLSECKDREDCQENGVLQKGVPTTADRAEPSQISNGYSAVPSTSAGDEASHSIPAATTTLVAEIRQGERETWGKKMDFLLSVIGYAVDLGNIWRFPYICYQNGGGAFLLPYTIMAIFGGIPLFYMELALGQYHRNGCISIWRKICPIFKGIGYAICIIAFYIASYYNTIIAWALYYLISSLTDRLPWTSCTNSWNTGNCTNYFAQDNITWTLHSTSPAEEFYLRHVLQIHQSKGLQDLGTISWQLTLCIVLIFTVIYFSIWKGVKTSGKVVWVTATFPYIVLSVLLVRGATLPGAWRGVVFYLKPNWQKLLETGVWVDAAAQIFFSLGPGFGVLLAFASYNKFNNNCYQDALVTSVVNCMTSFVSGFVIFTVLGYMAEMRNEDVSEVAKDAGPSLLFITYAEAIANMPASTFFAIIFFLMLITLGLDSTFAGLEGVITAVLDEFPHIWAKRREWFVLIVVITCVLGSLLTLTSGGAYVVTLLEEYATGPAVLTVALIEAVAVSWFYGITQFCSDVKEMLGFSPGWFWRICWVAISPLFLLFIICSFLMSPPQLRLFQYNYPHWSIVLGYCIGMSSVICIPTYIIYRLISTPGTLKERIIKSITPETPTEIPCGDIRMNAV
Procedure: A number of compounds were tested for their ability to inhibit the reuptake of the monoamine neurotransmitters dopamine (DA) noradrenaline (NA) and serotonine (5-HT) in synaptosomes as described in WO 97/16451.
The test values are given as IC50 (the concentration (μM) of the test substance which inhibits the specific binding of ^3H-DA, ^3H-NA, or ^3H-5-HT by 50%).

[4] = 3H-5-HT, synaptosomes, read-out: 5-HT-uptake IC50

| Compound | melting point [°C] | IC50 ([1]; 3H-DA, synaptosomes, read-out: DA-uptake IC50) [nM] | IC50 ([2]; 3H-NA, synaptosomes, read-out: NA-uptake IC50) [nM] | IC50 [3, 4] [nM] | IC50 [1] [nM] | IC50 [2] [nM] | IC50 [3] [nM] |
| --- | --- | --- | --- | --- | --- | --- | --- |
| CN1[C@@H]2C=C[C@H]1C[C@H](Oc1ccc3ccc(=O)oc3c1)C2 (as salt: hydrochloric acid salt) [First compound of Method 4B, exo-7-(8-Methyl-8-aza-bicyclo[3.2.1]oct-6-en-3-yloxy)-chromen-2-one hydrochloric acid salt] | > 275 | – | – | – | – | – | – |
| CN1[C@@H]2CC[C@H]1C[C@H](Oc1ccc3cc(Br)c(=O)oc3c1)C2 [First compound of Method 2B, exo-3-Bromo-7-(8-methyl-8-aza-bicyclo[3.2.1]oct-3-yloxy)-chromen-2-one hydrochloric acid salt] | – | 44 | 17 | 1.2 | – | – | – |
| CN1[C@@H]2C=C[C@H]1C[C@H](Oc1ccc3ccc(=O)oc3c1)C2 [First compound of Method 4B, exo-7-(8-Methyl-8-aza-bicyclo[3.2.1]oct-6-en-3-yloxy)-chromen-2-one hydrochloric acid salt] | – | – | – | – | 700 | 720 | 36 |
| O=c1oc2cc(O[C@@H]3C[C@H]4CC[C@@H](C3)N4)ccc2cc1Cl [Second last compound of Method 2B, exo-7-(8-Aza-bicyclo[3.2.1]oct-3-yloxy)-3-chloro-chromen-2-one hydrochloric acid salt] | – | – | – | 0.59 | 54 | 14 | – |
